Assay results reported in patent US20240197839A1, “Recombinant Human Acid Alpha-Glucosidase and Uses Thereof” (Amicus Therapeutics, Inc., priority 2021, published 2024).

Columns and labels:
Gaa KO mice [1] = experiment: muscle biomarker analysis (LAMP1, LC3, dysferlin) in Gaa KO mice; type: in vivo; settings: FIG. 15B
Procedure: The therapeutic effects of ATB200 and AT2221 were evaluated and compared against those of Alglucosidase alfa in Gaa KO mice. For the study, male Gaa KO (3- to 4-month old) and age-matched wild-type (WT) mice were used. Alglucosidase alfa was administered via bolus tail vein intravenous (IV) injection. In the co-administration regimen, AT2221 was administered via oral gavage (PO) 30 minutes prior to the IV injection of ATB200. Treatment was given biweekly. Treated mice were sacrificed after 14 days from the last administration and various tissues were collected for further analysis. Table 7 summarizes the study design:
Tissue samples were also analyzed for biomarker changes following the methods discussed in: Khanna R, et al. (2012), “The pharmacological chaperone AT2220 increases recombinant human acid α-glucosidase uptake and glycogen reduction in a mouse model of Pompe disease,” Plos One 7(7): e40776; and Khanna, R et al. (2014), “The Pharmacological Chaperone AT2220 Increases the Specific Activity and Lysosomal Delivery of Mutant Acid α-Glucosidase, and Promotes Glycogen Reduction in a Transgenic Mouse Model of Pompe Disease,” PLoS ONE 9(7): e102092.

Gaa KO mice [2] = experiment: single fiber analysis (LAMP1/LC3 co-immunofluorescence, white gastrocnemius); type: in vivo; settings: Gaa KO mice
Text: FIG. 17 depicts co-immunofluorescent staining of LAMP1 (green) (see for example, “B”) and LC3 (red) (see, for example, “A”) in single fibers isolated from the white gastrocnemius of Gaa KO mice treated with a vehicle, alglucosidase alfa, or ATB200. “C” depicts clearance of autophagic debris and absence of enlarged lysosome. A minimum of 30 fibers were examined from each animal.
As a result, a significant portion of muscle fibers analyzed (36-60%) from ATB200-treated mice appeared normal or near-normal.

[3] = system: adult subjects with late-onset Pompe disease (LOPD); experiment: ATB200-03 (PROPEL) phase 3 trial: 6-minute walk test; type: in vivo, human
Text: (§1) The ATB200-03 trial was a phase 3 double-blind, randomized, multicenter, international study of ATB200/AT2221 in adult subjects with late-onset Pompe disease (LOPD) who had received enzyme replacement therapy with alglucosidase alfa (i.e., ERT-experienced) or who had never received ERT (i.e., ERT naïve), compared with alglucosidase alfa/placebo.
Eligible subjects were randomly assigned in a 2:1 ratio to receive ATB200/AT2221 or alglucosidase alfa/placebo and stratified by ERT status (ERT-experienced, ERT-naïve) and baseline 6-minute walk distance (6MWD) (75 to <150 meters, 150 to <400 meters, ≥400 meters).
(§2) Efficacy assessments (i.e., functional assessments) included evaluation of ambulatory function (6MWT), motor function tests (Gait, Stair, Gower, and Chair maneuver (GSGC) test and Timed Up and Go (TUG) test), muscle strength (manual muscle testing and quantitative muscle testing), and pulmonary function tests (FVC, SVC, MIP, MEP, and SNIP). Patient reported outcomes (Rasch-built Pompe-specific Activity (R Pact) Scale, EuroQol 5 Dimensions 5 Levels Instrument (EQ-5D-5L), Patient-Reported Outcomes Measurement Information System (PROMIS®) instruments for physical function, fatigue, dyspnea, and upper extremity, and Subject's Global Impression of Change) were recorded. The Physician's Global Impression of Change were also performed.
The primary efficacy endpoint was the change from baseline to Week 52 in 6MWD. The primary endpoint was tested for superiority of ATB200/AT2221 vs Alglucosidase alfa/placebo, using mixed-effect model for repeated measures (MMRM) and pre-specified nonparametric test in case of violation of normality.
Efficacy Analyses. The primary efficacy endpoint (i.e., change from baseline to Week 52 in 6MWD) was analyzed using a parametric analysis of covariance (ANCOVA) model to compare between the new treatment and the control. This model would typically adjust for baseline 6MWD (as a continuous covariate), and the 2 factors used to stratify randomization: ERT status (ERT naïve vs. ERT-experienced) and baseline 6MWD (75 to <150 meters, 150 to <400 meters, ≥400 meters). However, the baseline 6MWD could not be used in the model twice (both as a continuous and a categorical variable) due to the expected high point biserial correlation between them. Thus, the 6MWD continuous variable remained in the model but the categorical 6MWD was removed. The ANCOVA model then had terms for treatment, baseline 6MWD (continuous), and ERT status (categorical).
(§3) PROPEL was a 52-week, double-blind randomized global study designed to assess the efficacy, safety and tolerability of AT-GAA compared to the current standard of care, alglucosidase alfa, an enzyme replacement therapy (ERT). The study enrolled 123 adult Pompe patients who still had the ability to walk and to breathe without mechanical ventilation and was conducted at 62 clinical sites in 24 countries on 5 continents. It was the largest controlled clinical study ever conducted in a lysosomal disorder.

[4] = system: adult subjects with late-onset Pompe disease (LOPD); experiment: ATB200-03 (PROPEL) phase 3 trial: sitting forced vital capacity; type: in vivo, human
Text: as §1, §2
Key secondary efficacy endpoints in a pre-specified hierarchical order of importance were as follows. These secondary endpoints were analyzed using analysis of covariance (ANCOVA) model with last observation carried forward (ITT LOCF). • change from baseline to Week 52 in sitting FVC (% predicted) • change from baseline to Week 52 in the manual muscle test score for the lower extremities • change from baseline to Week 52 in the total score for the PROMIS—physical function • change from baseline to Week 52 in the total score for the PROMIS—fatigue • change from baseline to Week 52 in GSGC total score
as §3

[5] = system: adult subjects with late-onset Pompe disease (LOPD); experiment: ATB200-03 (PROPEL): Gait, Stair, Gower, Chair (GSGC) test; type: in vivo, human; settings: overall population, 52 weeks (p<0.05)
Text: as §1, §2
Key secondary efficacy endpoints in a pre-specified hierarchical order of importance were as follows. […]

[6] = system: adult subjects with late-onset Pompe disease (LOPD); experiment: ATB200-03 (PROPEL): creatine kinase (CK) biomarker of muscle injury; type: in vivo, human; settings: after 52 weeks, overall population (p<0.001)
Text: as §1
(§4) Pharmacodynamic assessments included measurement of biomarkers of muscle injury (creatine kinase (CK) and disease substrate (urinary hexose tetrasaccharide (Hex4)). Sparse blood samples were collected for determination of total GAA protein levels and AT2221 concentrations in plasma for a population PK analysis in ERT-experienced subjects. Serial blood sampling for characterization of the PK profile of total GAA protein and AT2221 were done in ERT-naïve subjects.
(§5) Pharmacodynamic endpoints were as follows: • change from baseline to Week 52 in serum CK level • change from baseline to Week 52 in urinary Hex4 level

[7] = system: adult subjects with late-onset Pompe disease (LOPD); experiment: ATB200-03 (PROPEL): urinary hexose tetrasaccharide (Hex4) biomarker; type: in vivo, human; settings: after 52 weeks, combined ERT switch and ERT naïve population (p<0.001)
Text: as §1, §4, §5

[8] = system: adult subjects with late-onset Pompe disease (LOPD); experiment: ATB200-03 (PROPEL): safety assessments; type: in vivo, human; settings: 52-week treatment
Text: Safety assessments included monitoring of adverse events (AEs), including infusion associated reactions (IARs), clinical laboratory tests (chemistry, hematology, and urinalysis), vital signs, physical examinations including weight, electrocardiograms (ECGs), and immunogenicity. Concomitant medications and nondrug therapies were also be recorded.
The safety profile of ATB200/AT2221 was characterized using incidence of treatment emergent adverse events (TEAEs), serious adverse events (SAEs), and AEs leading to discontinuation of study drug, frequency and severity of immediate and late IARs, and any abnormalities noted in other safety assessments. The impact of immunogenicity to ATB200 and alglucosidase alfa on safety and efficacy was also assessed.
Safety Analyses. Safety data was summarized using counts and percentages for categorical data and descriptive statistics (mean, standard deviation, median, minimum, maximum) for continuous data.

[9] = system: subjects with late-onset Pompe disease (LOPD); settings: cited from earlier work
[10] = ERT switch (ERT-experienced) population (n=95)
[11] = ERT treatment naïve population (n=27), listed as Alglucosidase alfa
[12] = overall ERT switch and ERT naïve population (n=122)

[199-arginine,223-histidine]prepro-α-glucosidase (human) [alglucosidase alfa]
LC3 II level by western blot (autophagy) (Gaa KO mice [1]): modest | Fibers with Autophagy Buildup (Gaa KO mice [2]): >90% | Fibers with Normal or Near-normal Appearance (Gaa KO mice [2]): <10% | 6MWD CFBL at Week 52 [3, 10]: 0.0 m | 6MWD CFBL at Week 52 ([3]; ERT treatment naïve population (n=27)): 38 m | 6MWD CFBL at Week 52 [3, 11]: +38.3 (11.1) m | 6MWD CFBL at Week 52 [3, 12]: 7 m | 6MWD CFBL at Week 52 ([3]; overall ERT switch and ERT naïve population (n=122), listed as Alglucosidase alfa): +7.2 m | FVC CFBL at Week 52 [4, 10]: −4.0 (0.9) % predicted | FVC CFBL at Week 52 [4, 11]: −3.6 (1.8) % predicted | FVC CFBL at Week 52 ([4]; ERT treatment naïve population (n=27), listed as alglucosidase alpha): −3.6 % predicted | absolute decline in percent-predicted FVC ([4]; after 52 weeks, combined population): 4.0% | absolute decline in percent-predicted FVC ([4]; over the course of the year, ERT switch patients): 4.0% | FVC CFBL at Week 52 [4, 12]: −4.0 (0.8) % predicted | GSGC scores [5]: worsening | mean change in CK [6]: +15.6% | mean change in urine Hex-4 [7]: +11.0% | patients who discontinued treatment due to an adverse event [8]: 2.6% | Injection associated reactions (IARs) reported ([8]; share of participants): 26% | subjects who did not show an initial improvement during treatment ([9]; 368 LOPD subjects from published studies): > 30% | duration of improvements in initial responders ([9]; longer-term studies): approximately 2 years
